From patent US4508625A, “Magnetic separation using chelated magnetic ions” (priority 1983, dated 1985)

Assays:
red blood cells = settings: 10 mM dithionite or 20 mM nitrite, cited from earlier work; for cell separation: 1.0 Tesla, 1.0 ml/minute, filtration times of more than one minute; for separation efficiency: 2.0 Tesla, unacceptably variable from sample to sample
[1] = test system: human blood cells (whole blood); test: High-gradient magnetic separation (HGMS) filtration of cells from diluted whole blood; type: cell-based; settings: for Magnetic efficiency, E / Magnetic filtration, M / Mechanical Filtration, F / Total Filtration, T: 0.75 ml/min, 316L matrix
Text: The samples were verified for normalcy (COULTER COUNTER Model S-Plus; Coulter Electronics, Inc.) before use on the day of drawing.
Separability of cells from carrier fluids was examined using a High-Gradient Magnetic Separation (HGMS) system. The filter was a D-shaped plastic chamber 13 mm long and 118 mm^2 in cross-section, filled with stainless steel wire as noted. Packing was random, but with the major component parallel to flow. […] Suspension flows upward through the filter were controlled by a variable-speed syringe pump, fitted with a 3 ml syringe to contain the cell suspension.
Unless otherwise noted, to clean the matrix and to clear the circuit of air, the filter was flushed manually with 15 ml of the experimental carrier solution before each separation determination. With the electromagnet still de-energized, the circuit was then overfilled rapidly with the corresponding cell suspension, and the syringe pump was activated. After 1.2 ml of cell suspension had been delivered at the chosen flow rate, a one-milliliter aliquot (Al) of filter effluent was collected for use in calculating mechanical filtration levels. With filter backflow prevented, the pump syringe was refilled, the magnet energized at the preselected field intensity, and the delivery and collection (aliquot A2) steps repeated. This sequence was repeated for each selected combination of flow rate and field intensity. A 2 ml control aliquot (A3) was taken for each suspension from the reservoir used to fill the filter and the syringe pump. The aliquots were analyzed for cell count and volume, count data (A1, A2, A3) being used to calculate filter characteristics as follows (for percentages, multiply by 100:)
Mechanical Filtration, F=(A3-A1)/A3
Magnetic filtration, M=(A1-A2)/A3
Magnetic efficiency, E=(A1-A2)/A1=M/(1-F)
Total Filtration, T=(A3-A2)/A3=M+F
The solution osmolarity was adjusted to that of 40 mM erbium chloride by addition of sodium chloride. In a second experiment, 10 mM sodium dithionite in isotonic saline buffered with phosphate was employed.
Erbium chloride was dissolved in water via chelation with EDTA. Carrier solutions of 100 cc each, containing erbium chloride in the concentration of 2 mM, 5 mM, 10 mM, 20 mM, 40 mM and 50 mM respectively and EDTA in a molar ratio of 1.1:1 with the erbium chloride were prepared in the following manner for use in obtaining the data reported in Table I.
The volume was then brought to 75 ml with deionized water, and the materials were mixed in a plastic container. The solution pH was adjusted to 7.0 to 7.1 by adding sodium hydroxide solution. The osmolarity was then adjusted to physiological levels of about 300±10 mOs/L, the 100 ml volume being completed with deionized water. Carrier solutions were prepared within two hours of each experiment from stock solutions no more than one week old.
The above procedures were followed substituting the equivalent amount of dysprosium chloride for the erbium chloride in order to obtain the values reported in FIG. 1.

blood cells = test: Cell integrity during separation (lysis, morphology, clumping, hemoglobin state); type: cell-based, human; settings: 10 mM sodium dithionite
Procedure: In Table I, the filtration data at 0.75 ml/min is reported for whole blood diluted 1:101 with the working solution including erbium chelate at the indicated concentration. The matrix material was unannealed, 316L austenitic stainless wire, 35 micrometers in diameter, randomly packed to 11.4% of the filter volume. Table I summarizes experimental filtration data according to the concentration of Er(EDTA)^- in the carrier solution, and includes for comparative purposes, sodium dithionite at 10 mM final concentration as a substitute for the chelated lanthanide. The solution osmolarity was adjusted to that of 40 mM erbium chloride by addition of sodium chloride. In a second experiment, 10 mM sodium dithionite in isotonic saline buffered with phosphate was employed. […] Data for various field intensities are given for the higher chelate concentrations, all at constant flows of 0.75 ml/min. Carrier solutions used in each of the stated concentrations of the lanthanide chelate were prepared as described in Example 1.
Cellular hemoglobin remains in the oxygenated (and therefore the antagonistically diamagnetic) state throughout the separation process. Cell lysis was not detected. […] The cells were readily removed from the matrix by flushing with isotonic saline (0.9% NaCl by weight containing no metal chelate). […]

For O=S([O-])S(=O)[O-].[Na+].[Na+] [Sodium dithionite, sodium dithionite], the cell separation (red blood cells) is given as “approximately 70%”, the separation efficiency (red blood cells) is given as “exceeding 85%” and the “Magnetic efficiency, E” value ([1]; 10 mM, 0.30 T) is given as 13.0%. The “Magnetic filtration, M” value ([1]; 10 mM, 0.30 T) was 11.6%, the “Mechanical Filtration, F” value ([1]; 10 mM, 0.30 T) was 11.0% and the “Total Filtration, T” value ([1]; 10 mM, 0.30 T) was 22.6%. For the same compound, the “Magnetic efficiency, E” value ([1]; 10 mM, 1.00 T) was 76.9%, the “Magnetic filtration, M” value ([1]; 10 mM, 1.00 T) was 68.4% and the “Mechanical Filtration, F” value ([1]; 10 mM, 1.00 T) was 11.0%. The “Total Filtration, T” value ([1]; 10 mM, 1.00 T) was 79.4%, the “Magnetic efficiency, E” value ([1]; 50 mM, 0.48 T) was 92.2% and the “Magnetic filtration, M” value ([1]; 50 mM, 0.48 T) was 88.2%. The “Mechanical Filtration, F” value ([1]; 50 mM, 0.48 T) was 4.3%, the “Total Filtration, T” value ([1]; 50 mM, 0.48 T) was 92.5% and the “Magnetic efficiency, E” value ([1]; 50 mM, 1.00 T) was 98.4%. The “Magnetic filtration, M” value ([1]; 50 mM, 1.00 T) was 94.1%, the “Mechanical Filtration, F” value ([1]; 50 mM, 1.00 T) was 4.3% and the “Total Filtration, T” value ([1]; 50 mM, 1.00 T) was 98.4%. The separation efficiency ([1]; 0.3 Tesla, 430 ferritic matrix, 40 mM chelate or 10 mM sodium dithionite, 0.75 ml/min (FIG. 1)) was 37%, the separation efficiency ([1]; 0.7 Tesla, 430 ferritic matrix, 10 mM sodium dithionite, identical flows) was 90% and the “repeatable separations at efficiencies greater than 99%” value ([1]; 430 ferritic matrix) was “not practical”. The deoxygenation of hemoglobin (blood cells) was “deoxygenation was confirmed spectrophotometrically”.
In the case of O=N[O-].[Na+] [nitrite, sodium nitrite], the cell separation (red blood cells) is listed as “approximately 70%” and the separation efficiency (red blood cells) is listed as “exceeding 85%”.
